Tested on: human patients suffering from relapsing multiple sclerosis (RMS)
Test: Phase II RMS study: qualified relapse assessment (ARR, relapse-free status)
Assay type: in vivo
Settings: for Qualified relapse rate, adjusted / Qualified relapses, number of relapses: 24 weeks; for Proportion relapse-free / Unadjusted ARR: Week 24
Method: The assessing Investigator and central MRI reader were treatment blinded.
Subjects were assessed for MS relapse at visits beginning at Week 4. Relapse was also assessed at any Unscheduled Visit for Neurological Worsening and Relapse Assessment. For subjects in the OLE Period, MS relapse was assessed at all visits. A qualifying relapse was defined as new, worsening or recurrent neurological symptoms attributed to MS that last for at least 24 hours without fever or infection, or adverse reaction to prescribed medication, preceded by a stable or improving neurological status of at least 30 days. The relapse must have been accompanied by new clinical signs (i.e., changes in the neurological examination or an increase in EDSS score).
The protocol specified that all cases of potential relapse were to be objectively confirmed by the Investigator regardless of whether they were identified during a scheduled or unscheduled visit. Any assessments needed to confirm the relapse were to be performed, and details of the relapse were to be documented within the relevant section(s) of the eCRF.
Additional Secondary Endpoints
Analysis of secondary endpoints was based on the mITT analysis set. […] Descriptive statistics for ARR were calculated for each treatment group as the total number of qualified relapses divided by the number of subject-years of observation.
Primary and secondary efficacy endpoints were analysed based on the modified intention-to-treat (mITT) analysis set, consisting of all randomized patients with at least one available baseline and one post-baseline MRI assessment. […] For each endpoint, rate ratio (RR; null-hypothesis RR=1.0) adjusted for baseline disease activity was reported together with associated 95% CI and p-value. The T2 lesion endpoint was analysed similarly. Dose-response relationships between evobrutinib treatment dose and primary and key secondary endpoints were assessed for linear and monotonic trend. The analysis of CFB in cube root of volume of T2 lesions at Week 24 was based on a mixed-effect model for repeated measures, with fixed effects for treatment, week of visit, and treatment-by-week interaction, random effect for subject, and adjustment for baseline cube root of lesion volume. CFB in SF-36 score at Week 24 was analysed similarly. Descriptive statistics were used to further describe the study outcomes.

C=CC(=O)N1CCC(CNc2ncnc(N)c2-c2ccc(Oc3ccccc3)cc2)CC1 [Evobrutinib, 1-(4-(((6-amino-5-(4-phenoxyphenyl)pyrimidin-4-yl)amino)methyl)piperidin-1-yl)prop-2-en-1-one]
Qualified relapse rate, adjusted (25 mg QD): 0.47 | Qualified relapses, number of relapses (25 mg QD): 12 n | Proportion relapse-free (25 mg QD): 76.0% | Unadjusted ARR (25 mg QD): 0.52 | Proportion relapse-free (25 mg QD, listed as evobrutinib): 76% | Qualified relapse rate, adjusted (75 mg BID): 0.07 | Qualified relapses, number of relapses (75 mg BID): 2 n | Proportion relapse-free (75 mg BID): 86.8% | Unadjusted ARR (75 mg BID): 0.08 | Proportion relapse-free (75 mg BID, listed as evobrutinib): 87% | Qualified relapse rate, adjusted (75 mg QD): 0.10 | Qualified relapses, number of relapses (75 mg QD): 3 n | Proportion relapse-free (75 mg QD): 88.2% | Unadjusted ARR (75 mg QD): 0.13 | Proportion relapse-free (75 mg QD, listed as evobrutinib): 88%

Source: patent US12251382B2, “Substituted amino-pyrimidine compound for use in a method for treatment and prevention of multiple sclerosis” (Merck Patent GmbH, priority 2018, dated 2025)
